Measurements published in US20100256048A1, “POLYPEPTIDE COMPOUND” (Astellas Pharma Inc., priority 2007, published 2010).

Columns and labels:
A. fumigatus 20030 = experiment: Mouse respiratory infection model; assay type: in vivo, Aspergillus fumigatus; conditions: male ICR mice given cyclophosphamide, compound intravenously, lives and deaths observed over 10 days
Protocol: Effect to Mouse Respiratory Infection Model
4-week old male ICR mice were used so as to be eight mice in a group. 200 mg/kg of cyclophosphamide is intraperitoneally administered into mice at 4 days before infection and 1 day after infection. Conidium liquid (0.05 mL: approximately 2.2×10^6) of A. fumigatus 20030 suspended in physiological saline was inoculated from respiratory passages of mice to cause respiratory infection. The compound was administered intravenously for 2 hours to 4 days after the infection. The lives and deaths of the mice were observed over a 10 day period starting from the next day.

[1] = tested on: C. albicans (Candida albicans); experiment: MIC in human serum by microdilution, C. albicans; assay type: cell-based; conditions: human serum buffered with 20 mM HEPES pH 7.3; 37° C., 24 hours, 5% CO2; geometric mean of three clinical cell lines; growth completely inhibited
Protocol: (§1) Measurement of Susceptibility to C. albicans (Candida albicans) and A. fumigatus (Aspergillus fumigatus) By the microdilution method where human serum buffered with 20 mM-HEPES buffer (pH 7.3) was used as a test medium, MIC (minimum inhibitory concentration) in human serum was determined. The inoculum suspension of 10^6 cells/mL was prepared by a hemocytometric procedure to obtain an inoculum size of approximately 5×10^3 to 2×10^4cells/mL. Microplates were incubated at 37° C. for 24 hours under 5% CO2 atmosphere. […] The values were shown as geometric mean of MIC with reference to three of clinical cell lines.

[2] = tested on: A. fumigatus (Aspergillus fumigatus); experiment: MIC in human serum by microdilution, A. fumigatus; assay type: cell-based; conditions: human serum buffered with 20 mM HEPES pH 7.3; 37° C., 24 hours, 5% CO2; geometric mean of three clinical cell lines; growth sufficiently inhibited versus growth control
Protocol: as §1

Row | Compound | Infection experiments ED50 A. fumigatus (A. fumigatus 20030) | MIC (mean of three cell lines) C. albicans [1] | MIC (mean of three cell lines) A. fumigatus [2]
1 | COc1cc(C[C@@H](O)[C@@H]2NC(=O)[C@@H]3C[C@@H](O)CN3C(=O)[C@H]([C@@H](C)O)NC(=O)[C@@H](NC[C@H]3CC[C@H](c4nnc(-c5ccc(N6CCC(OC)(C7CCCCC7)CC6)cc5)s4)CC3)C[C@@H](O)CNC(=O)[C@@H]3[C@@H](O)[C@@H](C)CN3C(=O)[C@H]([C@H](O)CCN)NC2=O)ccc1O [Ex 1] | <0.3 mg/kg |  | 
2 | COc1cc(C[C@@H](O)[C@@H]2NC(=O)[C@@H]3C[C@@H](O)CN3C(=O)[C@H]([C@@H](C)O)NC(=O)[C@@H](NC[C@H]3CC[C@H](c4nnc(-c5ccc(N6CCC(OC)(C7CCCCC7)CC6)cc5)s4)CC3)C[C@@H](O)CNC(=O)[C@@H]3[C@@H](O)[C@@H](C)CN3C(=O)[C@H]([C@H](O)CCNC(CO)CO)NC2=O)ccc1O [Ex 6] | 0.44 mg/kg |  | 
3 | C[C@@H](O)[C@@H]1NC(=O)[C@@H](NCC2CCN(c3nnc(-c4ccc(-c5cnc(N6CCC(OC7CCCCC7)CC6)nc5)cc4)s3)CC2)C[C@@H](O)CNC(=O)[C@@H]2[C@@H](O)[C@@H](C)CN2C(=O)[C@H]([C@H](O)CC(=O)NCCN)NC(=O)[C@H]([C@H](O)Cc2ccc(O)c(OS(=O)(=O)O)c2)NC(=O)[C@@H]2C[C@@H](O)CN2C1=O [Ex 30] |  | 0.4 µg/mL | 0.32 µg/mL
4 | C[C@@H](O)[C@@H]1NC(=O)[C@@H](NC[C@H]2CC[C@H](c3nnc(-c4ccc(N5CCC(OC6CCCCC6)CC5)cc4)s3)CC2)C[C@@H](O)CNC(=O)[C@@H]2[C@@H](O)[C@@H](C)CN2C(=O)[C@H]([C@H](O)CCNC(CO)CO)NC(=O)[C@H]([C@H](O)Cc2ccc(O)c(OS(=O)(=O)O)c2)NC(=O)[C@@H]2C[C@@H](O)CN2C1=O [Ex 33] | 0.39 mg/kg |  | 
